Measurements published in PubChem BioAssay AID179 (DTP/NCI, 2004).
Several values for one entry are separate records, joined by “and”; a condition that tells them apart may be missing. Equal entries are not always repeated. Activity calls are given as the source filed them.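 The calls were made as follows: active = compounds giving half or more protection of infected cells from virus-caused growth loss, again on retest; inactive = the rest.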

Tested on: CEM cells HIV-1 protection, formazan growth assay
Test: NCI AIDS Antiviral Assay
Settings: for IC50: measured here: growth of uninfected CEM cells
How it was run: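 Category rules: moderately active means at least 50% protection on retest, and confirmed active means 100% protection reproducibly. The underlying data came from a formazan growth assay in HIV-1-infected CEM cells.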

Structure (SMILES)	EC50 [µM]	IC50	outcome
CC(C)NC(=O)OCc1c(COC(=O)NC(C)C)n(C)c2c1ccc1ccccc12	> 174	0.0813 µM	
CC(=O)NS(=O)(=O)c1ccc(NC(=O)COC(=O)c2cccc3c(=O)c4ccccc4[nH]c23)cc1	> 363	245 µM	
N#Cc1ccc(C=NC23CC4CC(CC(C4)C2)C3)cc1	> 67.6	> 67.6 µM	
O=NNc1ccc(S(=O)(=O)c2ccccc2)cn1	> 200	> 200 µM	
O=C1OCC2Cc3sccc3C(c3ccccc3)=C12 (stereo not drawn)	> 97.7	> 97.7 µM	
Cc1cc(S(=O)(=O)O)c(NC(=O)C(=O)Cc2cc(=O)oc3cc(O)ccc23)cc1Cl	> 79.4	> 79.4 µM	
CC(=O)NC1(C)CCC(C(C)(C)NC(C)=O)CC1 (stereo not drawn)	> 200	> 200 µM	
Cc1cc(C)c(-n2[nH]c(=O)n(C)c2=O)c(C)c1	> 200	> 200 µM	
CC(C)(NC1=NCCO1)c1ccccc1	> 200	> 200 µM	
CCCCC(C)C(OC(=O)CC(CC(=O)O)C(=O)O)C(CC(C)CC(O)CCCCC(O)CC(O)C(C)N)OC(=O)CC(CC(=O)O)C(=O)O (stereo not drawn)			inactive
CN(C)C(=O)OC(Cn1cncn1)(Cn1cncn1)c1ccc(Cl)cc1Cl	> 200	> 200 µM	
c1ccc2c(c1)c1c(n2CCOCCCN2CCCCC2)CCCC1	> 200	5.37 µM	
CC1(C)Oc2cc3oc(C(=O)O)cc(=O)c3cc2-c2ccc(O)cc21	> 490	347 µM	
Cc1c(Cl)cccc1Nc1ncccc1C(=O)O	> 200	> 100 µM	
COc1ccc(/C=C\c2cc(OC)c(OC)c(OC)c2)cc1OC(=O)CC(NC(=O)OC(C)(C)C)C(=O)OC(C)(C)C (stereo not drawn)	> 2	0.00331 µM	
CN(Cc1ccccc1)C1(N(C)Cc2ccccc2)CC1			inactive
CC(=O)Nc1ccc2c(C)c3c(nc2n1)[nH]c1ccccc13	> 200	25.7 µM	
Cc1cc(C)c2c(c1)C(=O)/C(=C/c1ccccc1C(=O)O)C2			inactive
S=c1sc2c(s1)SCCCCSCCCCSc1sc(=S)sc1SCCCCSCCCCS2	> 200	> 200 µM	
Cc1cccc2c(N)c3cccc(C(=O)NCC[N+](C)(C)Cc4ccccc4[N+](=O)[O-])c3nc12	> 100	3.55 µM	
CC(C)C(O)C(=O)C(O)C(C)C (stereo not drawn)	> 1020	> 1020 µM	
Fc1ccc(/C=C2\COCC3=C2NC(=S)NC3c2ccc(F)cc2)cc1 (stereo not drawn)			inactive

Structure (SMILES)	EC50 [µM]	IC50	outcome
O=C(OCC(O)CO)c1c(Cl)c(Cl)c(Cl)c(Cl)c1-c1c2cc(I)c(=O)c(I)c-2oc2c(I)c(O)c(I)cc12 (stereo not drawn)	> 200	2.63 µM	
O=C(NC(=S)NC(=O)c1cc(O)c(O)c(O)c1)c1cc(O)c(O)c(O)c1	> 200	4.27 µM	
COC(=O)c1c2n(c3ccccc13)C[C@H]1OC(C)(C)O[C@@H]21	> 200	126 µM	
Oc1ccc(C[C@@H]2CN[C@H](Cc3ccc(O)c(Br)c3)CN2)cc1	> 200	> 200 µM	
CCOC(=O)C(=CNC(Cc1c[nH]c2ccccc12)C(=O)OC)C(=O)OCC (stereo not drawn)			inactive
CCOC(=O)NP(=O)(N1CC1)N1CC1	> 200	> 200 µM	
CCCCCCOc1ccc(C(=O)N(C)O)cc1	> 200	11.5 µM	
O=C(Cn1c(=O)oc2ccccc21)N(c1ccccc1)c1ccccc1	> 200	> 200 µM	
COC(=O)C1ON(c2ccccc2)C2c3ccccc3-c3ccccc3C12 (stereo not drawn)	> 5.62	> 5.62 µM	
O=C(O)c1cc2cc(Br)ccc2cc1O	> 200	85.1 µM	
O=[N+]([O-])C(/C(Cl)=C(\Cl)Br)=C(/Cl)SCc1ccccc1	> 200	1.78 µM	
CCOC(=O)/C(C#N)=C/c1ccc(-c2ccccc2)cc1	> 25.7	> 25.7 µM	
COc1ccc(/C=C2/C(=O)NC3SC=C(c4cccc([N+](=O)[O-])c4)N23)cc1 (stereo not drawn)	> 200	83.2 µM	
O=P(Nc1cccc(Cl)c1)(Oc1ccccc1)N(CCCl)CCCl (stereo not drawn)	> 17.8	6.46 µM	
O=C(Nc1ccccc1)N1CCC2N(C(=O)Nc3ccccc3)CCC3N(C(=O)Nc4ccccc4)CCC1N23 (stereo not drawn)	> 13.2	> 13.2 µM	
O=C(NCCc1c(-c2ccccc2)[nH]c2ccccc12)C(F)(F)C(F)(F)F	> 200	25.7 µM	
O=S(=O)(/C=C/c1ccc(Cl)cc1Cl)Cc1ccccc1CS(=O)(=O)/C=C/c1ccc(Cl)cc1Cl	> 12.6	> 12.6 µM	
O=C(OCCO)c1c(Cl)c(Cl)c(Cl)c(Cl)c1-c1c2cc(Br)c(=O)c(Br)c-2oc2c(Br)c(O)c(Br)cc12	> 61.7	20.9 µM	
O=C1CCC(=O)c2sccc2N1	> 1380	> 1380 µM	
SCCCSCCSCCCSCCS	> 17.4	> 17.4 µM	
CSc1nc(-c2ccc(C)cc2)c(C#N)c(=O)[nH]1			inactive
COc1c(O)c(C=O)c2c(O)c(-c3c(C)cc4c(C(C)C)c(OC)c(O)c(C=O)c4c3O)c(C)cc2c1C(C)C	> 151	2.57 µM	

Structure (SMILES)	EC50 [µM]	IC50	outcome
C=C1CCC([N+](=O)[O-])[C@](C)(N=O)CC[C@@H]2C1CC2(C)C (stereo partly drawn)	> 200	17 µM	
COc1ccc(C2ON(c3ccccc3)CC=C2C)cc1 (stereo not drawn)	> 35.5	> 35.5 µM	
CN(CC(=O)O)S(=O)(=O)c1ccc(F)cc1			inactive
CC1(C)CCCCC1/C=C/C(CC(O)(C(F)(F)F)C(F)(F)F)=N\Nc1ccc([N+](=O)[O-])cc1[N+](=O)[O-] (stereo not drawn)	> 2	0.468 µM	
OCC12C=CC(C1)c1ccccc12 (stereo not drawn)	> 251	> 251 µM	
O=S(=O)(Sc1ccc(Cl)cc1)c1ccc(Cl)cc1	> 20	4.27 µM	
c1ccc(-c2cnnc3c4ccccc4nn23)cc1	> 200	> 200 µM	
O=C(O)CC[P+](c1ccccc1)(c1ccccc1)c1ccccc1	> 200	21.9 µM and > 200 µM	
O=[N+]([O-])c1ccc(COc2cccc3cccnc23)cc1	> 200	2.14 µM	
O=[N+]([O-])c1ccc(N=Nc2ccc(O)c3c(O)cc(S(=O)(=O)O)cc23)cc1S(=O)(=O)O	> 100	> 100 µM	
Cc1nc2c(Br)cc(Br)cc2c(=O)n1-c1ccccc1N	> 200	67.6 µM	
CC(=O)c1c(O)cc(O)c(-c2c(C)cc(O)c3c2C(=O)c2cccc(O)c2C3=O)c1O	> 200	25.7 µM	
CC(=O)OCC1OC(n2c3c(cc(C#N)c2=S)CCCC3)C(OC(C)=O)C(OC(C)=O)C1OC(C)=O (stereo not drawn)	> 200	87.1 µM and > 200 µM	
Cc1cc(C)c(C(=O)/C=C/c2ccccc2)c(C)c1	> 28.8	> 28.8 µM	
O=C1Oc2ccccc2C(=O)/C1=C/N1C(=O)/C(=C/c2ccccc2)NC1=S	> 200	> 100 µM	
O=C1OCCC1(Cc1ccc(Cl)cc1)Cc1ccc(Cl)cc1	> 29.5	> 29.5 µM	
Cc1cc(NS(=O)(=O)c2ccc(NO)cc2)no1	> 70.8	15.8 µM	
Cc1cc(O)c(/C=N/C(=S)Nc2cccc(C)c2C)c(=O)o1			inactive
CC(=O)Nc1ccc(/C=C2\SC(=S)N(/C=C(/C#N)S(=O)(=O)c3ccc(C)cc3)C2=O)cc1	> 200	74.1 µM	
C=C(C)C1CCC2(C)OC2C1 (stereo not drawn)	> 200	> 200 µM	
O=c1[nH]c(=O)n(C2C=CC(CO)O2)cc1C(OCC(F)(F)F)OCC(F)(F)F (stereo not drawn)	> 141	72.4 µM	
N#CC12C3C4C5C3C1C(C42)n1c(=O)n(-c2ccccc2)c(=O)n15 (stereo not drawn)	> 200	> 200 µM	

Structure (SMILES)	EC50 [µM]	IC50	outcome
NC(N)=NNC(O)(C(=O)O)C(=O)O	> 200	> 200 µM	
O=C(Cc1nc2sc3c(c2c(=O)[nH]1)CCCC3)Nc1ccccc1			inactive
COc1ccc2c(c1)CCc1c-2n(CCN(C)C)c2ccc(OC)cc12	> 200	6.17 µM	
CCOC(=O)[C@@H]1[C@@H](c2ccccc2)N(C)O[C@@]1(c1ccccc1)C(F)(F)F	> 200	47.9 µM	
c1cc2nnnn2nc1N1CCCC1	> 200	> 200 µM	
CC(=O)OC(Cc1cc(C=C(C(F)(F)F)C(F)(F)F)cc(C)n1)(C(F)(F)F)C(F)(F)F	> 200	0.955 µM	
CCOC(=O)[C]1([Bi]([CH3])[CH3])N=NC(C(=O)OC)=C1C(=O)OC (stereo not drawn)	17.4	26.3 µM	
CC(C)(C)C1=C(Br)C(OC(=O)C(F)(F)F)(C(C)(C)C)OP1(=O)c1ccccc1 (stereo not drawn)	> 200	74.1 µM	
Cc1cccnc1NC(=S)Nc1ccccc1Cl	> 200	0.813 µM	
Cc1cc(-c2ccc(N=Nc3ccc4c(S(=O)(=O)O)cc(S(=O)(=O)O)c(N)c4c3O)c(C)c2)ccc1N=Nc1ccc2c(S(=O)(=O)O)cc(S(=O)(=O)O)c(N)c2c1O	> 9.33		
O=C(Cc1ccccc1)NN1C(=O)/C(=C\c2cccc(O)c2)SC1=Nc1ccccc1	> 158	102 µM	
c1ccc2c(c1)CC1c3[nH]c4ccccc4c3CCN21 (stereo not drawn)	> 200	55 µM	
COC(=O)CCC1=NOC(CC2CC(CCC(=O)OC)=NO2)C1 (stereo not drawn)			inactive
Cc1ccc2c(c1)[nH]c(=S)n2/C=C(\c1ccccc1)S(=O)Cc1ccccc1 (stereo not drawn)	> 200	> 200 µM	
Nc1ccc2[nH]c(C(=O)N3CC(CCl)c4c3cc(N)c3ccccc43)cc2c1 (stereo not drawn)	> 0.2	0.00417 µM	
N#CCC(=O)N1CCCCCCC1	> 1380	> 1380 µM	
CS(=O)(=O)O[C@H]1CN2C[C@@H](O)[C@@H](O)[C@H]2[C@H]1CO	> 200	> 200 µM	
COc1ccc(-c2c(N3CCOCC3)oc3cc(N4CCOCC4)c(O)cc23)cc1	> 200	10.2 µM	
CCCCCC=C(c1cc(Br)c(OC)c(C(=O)O)c1)c1cc(Br)c(OC)c(C(=O)O)c1	> 200	91.2 µM	
CN(C)CCCNC(=O)c1cc(NC(=O)c2cc(NC(=O)c3cc(NC(=O)/C=C/C(=O)Nc4cn(C)c(C(=O)Nc5cn(C)c(C(=O)Nc6cn(C)c(C(=O)NCCCN(C)C)n6)n5)n4)cn3C)cn2C)cn1C	> 50.1	> 50.1 µM	
C/C(C(=O)O)=C(\C)c1ccccc1	> 200	> 200 µM	
